Results: ChEMBL document CHEMBL1201862, “PubChem BioAssay data set” (2004)
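Assay format: 96-well plates, 48-hour exposure. GI50 marks 50% less growth.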 Calls of active or inactive are those of the source. No stated cut-off is given here; in the data, active = GI50 up to about 1.1 µM and inactive = higher.

Columns and labels:
Test in all cases: NCI-60 cell line screen, 48 h
786-0 = test system: 786-0
A498 = test system: A498
A549 = test system: A549
CAKI-1 = test system: CAKI-1
COLO 205 = test system: COLO 205
HOP-92 = test system: HOP-92
KM12 = test system: KM12
NCI-H23 = test system: NCI-H23
OVCAR-4 = test system: OVCAR-4
OVCAR-8 = test system: OVCAR-8
RXF 393 = test system: RXF 393
SNB-19 = test system: SNB-19
U-251 = test system: U-251
UACC-257 = test system: UACC-257
UO-31 = test system: UO-31
ACHN = test system: ACHN
HOP-62 = test system: HOP-62

Measured: GI50

Clc1cc(Cl)c2c(Cl)cc(Cl)c3c2c1N=S=N3
inactive: 786-0 > 100 µM | A498 6.68 µM | A549 > 100 µM | CAKI-1 > 100 µM | COLO 205 > 100 µM | HOP-92 > 100 µM | KM12 > 100 µM | NCI-H23 > 100 µM | OVCAR-4 > 100 µM | OVCAR-8 > 100 µM | RXF 393 > 100 µM | SNB-19 > 100 µM | U-251 > 100 µM | UACC-257 > 100 µM | UO-31 > 100 µM

Cc1cc2c(cc1C)[n+]([O-])c(C(=O)C/C(=N/NC(=O)c1ccccc1O)C(=O)Nc1ccccc1C(C)C)c(C)[n+]2[O-]
inactive: 786-0 88.1 µM | A498 > 100 µM | A549 > 100 µM | ACHN > 100 µM | CAKI-1 > 100 µM | COLO 205 > 100 µM | HOP-62 > 100 µM | KM12 > 100 µM | NCI-H23 > 100 µM | OVCAR-4 54.1 µM | OVCAR-8 > 100 µM | RXF 393 > 100 µM | SNB-19 > 100 µM | U-251 > 100 µM | UACC-257 > 100 µM

COc1ccc(-c2oc3cc(O)c(OC)c(O)c3c(=O)c2OC2OC(CO)C(O)C(O)C2O)cc1 (configuration not stated)
inactive: 786-0 > 100 µM | A549 > 100 µM | ACHN 91.2 µM | COLO 205 > 100 µM | HOP-92 > 100 µM | KM12 > 100 µM | NCI-H23 > 100 µM | OVCAR-4 > 100 µM | OVCAR-8 91 µM | SNB-19 > 100 µM | U-251 > 100 µM | UO-31 82 µM

COc1cc(/C=C(\C#N)c2ccccc2)cc(OC)c1
inactive: 786-0 31.8 µM | A549 28.6 µM | ACHN 60.5 µM | CAKI-1 51.1 µM | COLO 205 57.4 µM | HOP-62 74.1 µM | KM12 34.8 µM | NCI-H23 20.3 µM | OVCAR-4 > 100 µM | OVCAR-8 > 10 µM | SNB-19 > 100 µM | U-251 28.3 µM | UACC-257 8.59 µM | UO-31 29.6 µM

C[Si](C)(C)/C(Br)=C\CCN1C(=O)CCC1O (configuration not stated)
inactive: 786-0 > 100 µM | A498 > 100 µM | A549 > 100 µM | ACHN > 100 µM | COLO 205 > 100 µM | HOP-92 91.4 µM | KM12 > 100 µM | NCI-H23 > 100 µM | OVCAR-4 > 100 µM | OVCAR-8 > 100 µM | RXF 393 > 100 µM | SNB-19 > 100 µM | U-251 > 100 µM | UACC-257 > 100 µM | UO-31 > 100 µM

C/C(CC(=O)Nc1ccc(NC(=O)/C(C)=N/NS(=O)(=O)c2ccc(C)cc2)cc1)=N\NS(=O)(=O)c1ccc(C)cc1
inactive: 786-0 > 100 µM | A498 > 100 µM | A549 > 100 µM | ACHN > 100 µM | CAKI-1 > 100 µM | COLO 205 > 100 µM | HOP-62 > 100 µM | HOP-92 > 100 µM | KM12 > 100 µM | NCI-H23 > 100 µM | OVCAR-8 > 100 µM | RXF 393 > 100 µM | U-251 > 100 µM | UACC-257 > 100 µM | UO-31 > 100 µM

C[C@H]1CC[P+](C)(c2ccccc2)C1 (some centres not stated)
inactive: 786-0 > 100 µM | A498 > 100 µM | A549 > 100 µM | ACHN > 100 µM | COLO 205 > 100 µM | HOP-62 > 100 µM | KM12 > 100 µM | NCI-H23 > 100 µM | OVCAR-8 > 100 µM | RXF 393 > 100 µM | SNB-19 > 100 µM | U-251 > 100 µM | UACC-257 > 100 µM | UO-31 > 100 µM

Brc1cc2c(cc1Br)CN(c1ccccc1)C2
inactive: 786-0 > 100 µM | A498 > 100 µM | A549 > 100 µM | ACHN > 100 µM | COLO 205 > 100 µM | HOP-62 > 100 µM | HOP-92 41.5 µM | KM12 > 100 µM | NCI-H23 > 100 µM | OVCAR-4 > 100 µM | OVCAR-8 > 100 µM | RXF 393 99.8 µM | SNB-19 > 100 µM | U-251 > 100 µM | UACC-257 > 100 µM | UO-31 > 100 µM

CCc1cc2c(O)c(c1)Cc1cc(CC)cc(c1O)Cc1cc(CC)cc(c1O)Cc1cc(CC)cc(c1O)Cc1cc(CC)cc(c1O)Cc1cc(CC)cc(c1O)Cc1cc(CC)cc(c1O)C2
inactive: 786-0 > 100 µM | A549 > 100 µM | ACHN > 100 µM | COLO 205 > 100 µM | HOP-62 > 100 µM | HOP-92 44 µM | KM12 > 100 µM | NCI-H23 > 100 µM | OVCAR-4 > 100 µM | OVCAR-8 > 100 µM | RXF 393 16.9 µM | SNB-19 22.1 µM | U-251 62.8 µM | UACC-257 > 100 µM | UO-31 > 100 µM

NC(CNc1ccc(O)cc1)C(=O)O (configuration not stated)
inactive: 786-0 16 µM | A498 > 100 µM | A549 > 100 µM | ACHN 57.8 µM | CAKI-1 81.8 µM | COLO 205 > 100 µM | HOP-62 > 100 µM | HOP-92 > 100 µM | KM12 > 100 µM | OVCAR-4 17.4 µM | OVCAR-8 > 100 µM | RXF 393 > 100 µM | SNB-19 > 100 µM | U-251 > 100 µM | UACC-257 > 100 µM | UO-31 > 100 µM

O=S1OC(c2ccccc2)(c2ccccc2)C(c2ccccc2)(c2ccccc2)O1
inactive: 786-0 > 100 µM | A498 > 100 µM | A549 40 µM | ACHN 41.7 µM | COLO 205 > 100 µM | HOP-62 > 100 µM | HOP-92 7.74 µM | KM12 5.43 µM | NCI-H23 > 52.7 µM | OVCAR-4 45.2 µM | OVCAR-8 > 100 µM | RXF 393 > 72.1 µM | SNB-19 > 100 µM | U-251 25.1 µM | UACC-257 46.6 µM | UO-31 > 29.7 µM

CCc1nc2c([nH]1)C(=O)c1ccccc1C2=O
inactive: 786-0 61.4 µM | A498 > 100 µM | A549 52.8 µM | ACHN 59.8 µM | CAKI-1 47.8 µM | HOP-62 > 100 µM | KM12 59.7 µM | NCI-H23 29 µM | OVCAR-4 58.7 µM | OVCAR-8 57.9 µM | RXF 393 > 100 µM | SNB-19 46.2 µM | U-251 55.5 µM | UACC-257 26.5 µM | UO-31 80.9 µM

CCCCCCCC(=O)OCC(C[As](=O)(O)O)OC(=O)CCCCCCC (configuration not stated)
inactive: 786-0 17.2 µM | A498 19.1 µM | A549 23 µM | ACHN 16.9 µM | COLO 205 14.3 µM | HOP-62 20.3 µM | HOP-92 12.7 µM | NCI-H23 15.2 µM | OVCAR-4 19.7 µM | OVCAR-8 15.8 µM | RXF 393 5.01 µM | SNB-19 14.8 µM | U-251 15 µM | UACC-257 14.8 µM | UO-31 15 µM

Cc1ccc(Nc2cccc3c2C(=O)c2cccc(Nc4ccc(C)cc4S(=O)(=O)O)c2C3=O)c(S(=O)(=O)O)c1
inactive: 786-0 > 100 µM | A498 > 100 µM | A549 > 100 µM | ACHN > 100 µM | CAKI-1 > 100 µM | COLO 205 > 100 µM | HOP-62 > 100 µM | KM12 > 100 µM | OVCAR-4 > 100 µM | OVCAR-8 > 100 µM | RXF 393 > 100 µM | SNB-19 > 100 µM | U-251 > 100 µM | UACC-257 > 100 µM | UO-31 > 100 µM

Brc1ccc2c(C3CN[C@@H](c4c[nH]c5cc(Br)ccc45)CN3)c[nH]c2c1 (some centres not stated)
inactive: 786-0 2.89 µM | A498 1.79 µM | A549 2.8 µM | ACHN 3.46 µM | CAKI-1 10.4 µM | COLO 205 1.9 µM | HOP-62 3.94 µM | HOP-92 1.66 µM | KM12 1.72 µM | NCI-H23 2.34 µM | OVCAR-4 3.31 µM | OVCAR-8 4.23 µM | RXF 393 1.55 µM | SNB-19 9.46 µM | U-251 5.37 µM | UACC-257 11.1 µM | UO-31 5.68 µM

CC1C=CC(O)[C@]2(CO)CC3(CCC12)OCCO3 (some centres not stated)
inactive: 786-0 > 100 µM | A498 > 100 µM | A549 > 100 µM | ACHN > 100 µM | CAKI-1 > 100 µM | HOP-62 > 100 µM | HOP-92 > 100 µM | KM12 > 100 µM | NCI-H23 > 100 µM | OVCAR-4 > 100 µM | OVCAR-8 > 100 µM | RXF 393 > 100 µM | SNB-19 > 100 µM | U-251 > 100 µM | UACC-257 > 100 µM | UO-31 > 100 µM

O=C(CC(=O)c1ccccc1)c1ccccc1.O=C(CC(=O)c1ccccc1)c1ccccc1.O=C(CC(=O)c1ccccc1)c1ccccc1.[SiH4]
inactive: 786-0 7.74 µM | A498 10.6 µM | A549 3.01 µM | ACHN 3.63 µM | CAKI-1 4.92 µM | COLO 205 2.21 µM | HOP-62 7.59 µM | HOP-92 4.57 µM | KM12 3.48 µM | NCI-H23 3.15 µM | OVCAR-4 4.63 µM | OVCAR-8 3.47 µM | SNB-19 4.74 µM | U-251 2.86 µM | UACC-257 9.42 µM | UO-31 4.56 µM
